Drawing on ChEMBL document CHEMBL1126402, “The design and biological evaluation of a series of 3-hydroxy-3-methylglutaryl coenzyme a (HMG-CoA) reductase inhibitors related to dihydromevinolin” (Bioorg Med Chem Lett, 1992), this text covers IC50 and Selectivity for eight compounds.

Structures are written as SMILES. Calls of active or inactive are those of the source. No cut-off for these calls is given here.

In test [1] the target is T1, 3-hydroxy-3-methylglutaryl-coenzyme A reductase (Rattus norvegicus, UniProt P51639).
T1 sequence (P51639 whole entry): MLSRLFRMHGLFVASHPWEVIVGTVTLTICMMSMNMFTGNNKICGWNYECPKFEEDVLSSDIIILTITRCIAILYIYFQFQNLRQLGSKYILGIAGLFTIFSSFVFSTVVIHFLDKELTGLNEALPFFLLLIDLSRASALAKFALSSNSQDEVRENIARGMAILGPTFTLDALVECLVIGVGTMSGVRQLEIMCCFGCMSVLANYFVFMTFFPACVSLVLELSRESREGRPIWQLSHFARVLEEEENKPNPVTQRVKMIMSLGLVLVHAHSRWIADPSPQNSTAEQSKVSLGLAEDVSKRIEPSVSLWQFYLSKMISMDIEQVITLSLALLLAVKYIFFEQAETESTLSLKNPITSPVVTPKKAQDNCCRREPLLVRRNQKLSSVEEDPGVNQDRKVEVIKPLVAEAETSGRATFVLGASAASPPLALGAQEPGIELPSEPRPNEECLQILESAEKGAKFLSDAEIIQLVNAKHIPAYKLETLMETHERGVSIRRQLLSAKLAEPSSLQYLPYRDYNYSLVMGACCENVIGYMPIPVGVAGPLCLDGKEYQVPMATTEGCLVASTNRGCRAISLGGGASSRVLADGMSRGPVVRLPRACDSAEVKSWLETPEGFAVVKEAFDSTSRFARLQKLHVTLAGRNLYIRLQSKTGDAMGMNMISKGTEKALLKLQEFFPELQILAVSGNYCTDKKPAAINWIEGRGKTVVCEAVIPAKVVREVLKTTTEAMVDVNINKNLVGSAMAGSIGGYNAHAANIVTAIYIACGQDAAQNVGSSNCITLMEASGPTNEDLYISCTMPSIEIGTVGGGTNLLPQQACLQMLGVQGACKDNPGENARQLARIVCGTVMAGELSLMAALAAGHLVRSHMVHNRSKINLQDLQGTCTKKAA
The test is described as follows: Inhibition of microsomal rat liver HMG-CoA reductase.

The nature of test [2]: Selectivity in vivo against rat assay; A - greater inhibition in liver than in spleen, testes, kidney. The test is classed as functional, organism-based.
Test [3] is described as follows: Selectivity in vivo against rat assay; NS - no significant difference between organs. The test is classed as functional, organism-based.

In test [1], `CC/C=C/[C@@H]1C[C@H](OC(=O)C(C)(C)CC)[C@@H]2[C@@H](CC[C@@H]3C[C@@H](O)CC(=O)O3)[C@@H](C)C=C[C@H]2C1` had an IC50 of 0.015 µM.
The compound `C/C=C/[C@@H]1C[C@H](OC(=O)C(C)(C)CC)[C@@H]2[C@@H](/C=C/[C@@H]3C[C@@H](O)CC(=O)O3)[C@@H](C)C=C[C@H]2C1` came in with an IC50 in test [1] of 0.1 µM.
Take `CCC(C)C(=O)O[C@H]1C[C@@H](C)C[C@@H]2C=C[C@H](C)[C@H](CCC(=O)C[C@@H](O)CC(=O)OC)[C@@H]12` (stereo partly specified): in test [1], inhibition was half-maximal at 0.08 µM (IC50).
The compound `CC[C@H](C)C(=O)O[C@H]1C[C@@H](C)C=C2C=C[C@H](C)[C@H](CC[C@@H]3C[C@@H](O)CC(=O)O3)[C@H]21` [LOVASTATIN] gave an IC50 in test [1] of 0.011 µM. Besides, the Selectivity result in test [2] is listed as “A”.
As to `CCC/C(C)=C/[C@@H]1C[C@H](OC(=O)C(C)(C)CC)[C@@H]2[C@@H](CC[C@@H]3C[C@@H](O)CC(=O)O3)[C@@H](C)C=C[C@H]2C1`, the IC50 in test [1] was found to be 0.008 µM. In addition, in test [3], the Selectivity entry was “inactive”.
Compound `CCC/C(C)=C/[C@@H]1C[C@H](OC(=O)[C@@H](C)CC)[C@@H]2[C@@H](CC[C@@H]3C[C@@H](O)CC(=O)O3)[C@@H](C)C=C[C@H]2C1` returned an IC50 in test [1] of 0.02 µM. The Selectivity entry in test [3] is “inactive”.
The compound `C/C=C\[C@@H]1C[C@H](OC(C)=O)[C@@H]2[C@@H](CC[C@@H]3C[C@@H](O)CC(=O)O3)[C@@H](C)C=C[C@H]2C1` had an IC50 in test [1] of 1.5 µM.
For `CCC(C)C(=O)O[C@H]1C[C@@H](C)C[C@@H]2C=CC[C@H](CC[C@@H]3C[C@@H](O)CC(=O)O3)[C@@H]12` (stereo partly specified), the IC50 in test [1] stood at 1.5 µM.
